Reference: patent US12577226B2, “Compounds for treating Huntington's disease” (PTC THERAPEUTICS, INC., priority 2019, dated 2026)

System: Endogenous Huntingtin Protein (capture with MW1 (expanded polyglutamine) or MAB2166 antibody)
Test: Endogenous Huntingtin Protein Assay (ELISA-based Meso Scale Discovery electrochemiluminescence assay)
Assay type: cell-based
Conditions: MSD electrochemiluminescence platform
In short: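 MSD electrochemiluminescence sandwich immunoassay: plates coated with 1 μg/mL MW1 or MAB2166 capture antibody, samples incubated overnight at 4 °C. Detection with rabbit monoclonal #5656S then SULFO-TAG anti-rabbit (each 0.25 μg/mL, 1 h RT).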

SMILES | IC50 [µM]
CC1(C)CC(Oc2ccc(-c3ncc(-c4ncco4)cc3O)nn2)CC2(CC2)N1 (stereo not shown) [Compound 28, 2-{6-[(5,5-dimethyl-4-azaspiro[2.5]octan-7-yl)oxy]pyridazin-3-yl}-5-(1,3-oxazol-2-yl)pyridin-3-ol] | ≤ 0.1
Oc1cc(-c2cn[nH]c2)cnc1-c1ccc(OC2CC3(CC3)NC3(CC3)C2)nn1 (stereo not shown) [Compound 31, 2-{6-[(4-azadispiro[2.1.2^5.3^3]decan-9-yl)oxy]pyridazin-3-yl}-5-(1H-pyrazol-4-yl)pyridin-3-ol] | 0.1 to 0.5
C[C@]12CC[C@](C)(C[C@@H](Oc3ccc(-c4ncc(-n5nccn5)cc4O)nn3)C1)N2 [Compound 32, 2-(6-{[(1R,3s,5S)-1,5-dimethyl-8-azabicyclo[3.2.1]octan-3-yl]oxy}pyridazin-3-yl)-5-(2H-1,2,3-triazol-2-yl)pyridin-3-ol and 2-(6-{[(1S,3r,5R)-1,5-dimethyl-8-azabicyclo[3.2.1]octan-3-yl]oxy}pyridazin-3-yl)-5-(2H-1,2,3-triazol-2-yl)pyridin-3-ol] | ≤ 0.1
[2H]C([2H])([2H])n1cc(-c2cnc(-c3ccc(O[C@H]4C[C@]5(C)CC[C@](C)(C4)N5)nn3)c(O)c2)cn1 [Compound 33, 2-(6-{[(1R,3s,5S)-1,5-dimethyl-8-azabicyclo[3.2.1]octan-3-yl]oxy}pyridazin-3-yl)-5-[1-(^2H3)methyl-1H-pyrazol-4-yl]pyridin-3-ol and 2-(6-{[(1S,3r,5R)-1,5-dimethyl-8-azabicyclo[3.2.1]octan-3-yl]oxy}pyridazin-3-yl)-5-[1-(^2H3)methyl-1H-pyrazol-4-yl]pyridin-3-ol] | ≤ 0.1
C[C@]12CC[C@](C)(C[C@@H](Oc3ccc(-c4ncc(-c5cncnc5)cc4O)nn3)C1)N2 [Compound 36, 2-(6-{[(1R,3s,5S)-1,5-dimethyl-8-azabicyclo[3.2.1]octan-3-yl]oxy}pyridazin-3-yl)-5-(pyrimidin-5-yl)pyridin-3-ol and 2-(6-{[(1S,3r,5R)-1,5-dimethyl-8-azabicyclo[3.2.1]octan-3-yl]oxy}pyridazin-3-yl)-5-(pyrimidin-5-yl)pyridin-3-ol] | 0.5 to 1
Cc1cn2nc(-c3cnc(-c4ccc(O[C@H]5CC(C)(C)NC(C)(C)[C@H]5F)nn4)c(O)c3)cc(C)c2n1 [Compound 38, 5-(2,8-dimethylimidazo[1,2-b]pyridazin-6-yl)-2-(6-{ [(3R,4S)-3-fluoro-2,2,6,6-tetramethylpiperidin-4-yl]oxy}pyridazin-3-yl)pyridin-3-ol or 5-(2,8-dimethylimidazo[1,2-b]pyridazin-6-yl)-2-(6-{ [(3S,4R)-3-fluoro-2,2,6,6-tetramethylpiperidin-4-yl]oxy}pyridazin-3-yl)pyridin-3-ol] | ≤ 0.1
CC1(C)C[C@@H](Oc2ccc(-c3ncc(-c4cn[nH]c4F)cc3O)nn2)[C@@H](F)C(C)(C)N1 [Compound 40, 5-(5-fluoro-1H-pyrazol-4-yl)-2-(6-{[(3S,4R)-3-fluoro-2,2,6,6-tetramethylpiperidin-4-yl]oxy}pyridazin-3-yl)pyridin-3-ol] | ≤ 0.1

Second part, the compound after the results:

IC50 [µM] | SMILES
≤ 0.1 | [2H]C([2H])([2H])n1cc(-c2cnc(-c3ccc(N4CCC(NC(C)(C)C)C4)nn3)c(O)c2)cn1 (stereo not shown) [Compound 29, 2-{6-[3-(tert-butylamino)pyrrolidin-1-yl]pyridazin-3-yl}-5-[1-(^2H3)methyl-1H-pyrazol-4-yl]pyridin-3-ol]
≤ 0.1 | COc1cc(-c2cnc(-c3ccc(N4CC[C@@H](NC(C)(C)C)C4)nn3)c(O)c2)ncn1 [Compound 30, 2-{6-[(3R)-3-(tert-butylamino)pyrrolidin-1-yl]pyridazin-3-yl}-5-(6-methoxypyrimidin-4-yl)pyridin-3-ol]
≤ 0.1 | Cc1cn2nc(-c3cnc(-c4ccc(OC5CC(C)(C)NC(C)(C)C5)nn4)c(O)c3)cc(C)c2n1 [Compound 50, 5-(2,8-dimethylimidazo[1,2-b]pyridazin-6-yl)-2-{6-[(2,2,6,6-tetramethylpiperidin-4-yl)oxy]pyridazin-3-yl}pyridin-3-ol]
